How the values were obtained:
[1] = tested on: HPAF-II (Pancreatic Carcinoma); test: Bliss excess, mean over the matrix (fraction); higher = more synergy
How it was run: (§1)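 After 24 hours at 37°C and 5% CO2 in 1536-well plates, cells in DMEM/F12 or RPMI plus 10% FBS received two-drug dose matrices for 72 hours. Viability came from CellTiter-Glo 2.0 luminescence and was scaled as inhibition, anchored at 0 by vehicle wells and at 1 by blank wells. Combination Emax is taken as the second-highest inhibition in the matrix, and Bliss excess as the observed combination effect less EA + EB − EA·EB, with EA and EB the single-agent effects.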

[2] = tested on: BHT-101 (Thyroid Gland Carcinoma); test: combination Emax (second highest fraction inhibited in the dose matrix, 72 h); higher = more inhibition; extreme values may be limits of the assay
How it was run: as §1

[3] = tested on: BxPC-3 (Pancreatic Carcinoma); test: as above
How it was run: as §1

[4] = tested on: C-33-A (Cervical Carcinoma); test: as above
How it was run: as §1

[5] = tested on: HPAF-II (Pancreatic Carcinoma); test: as above
How it was run: as §1

[6] = tested on: HT-1080 (Other Solid Carcinomas); test: as above
How it was run: as §1

IST-MEL1 (Melanoma) = test: as above
How it was run: as §1

KALS-1 (Glioblastoma) = test: as above
How it was run: as §1

[7] = tested on: LS-1034 (Colorectal Carcinoma); test: as above
How it was run: as §1

[8] = tested on: MOLP-8 (Plasma Cell Myeloma); test: as above
How it was run: as §1

[9] = tested on: MONO-MAC-6 (Acute Myeloid Leukemia); test: as above
How it was run: as §1

[10] = tested on: OVCAR-3 (Ovarian Carcinoma); test: as above
How it was run: as §1

SK-N-SH (Neuroblastoma) = test: as above
How it was run: as §1

[11] = tested on: SKG-IIIa (Cervical Carcinoma); test: as above
How it was run: as §1

WM35 (Melanoma) = test: as above
How it was run: as §1

[12] = tested on: ZR-75-30 (Breast Carcinoma); test: as above
How it was run: as §1
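Throughout, for Bliss excess, mean over the matrix: after 72 h of two-drug dosing.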

Compound	Bliss excess [1]	combination Emax [2]	combination Emax [3]	combination Emax [4]	combination Emax [5]	combination Emax [6]	combination Emax (IST-MEL1 (Melanoma))	combination Emax (KALS-1 (Glioblastoma))	combination Emax [7]	combination Emax [8]	combination Emax [9]	combination Emax [10]	combination Emax (SK-N-SH (Neuroblastoma))	combination Emax [11]	combination Emax (WM35 (Melanoma))	combination Emax [12]
NC1(C(=O)N[C@@H](CCO)c2ccc(Cl)cc2)CCN(c2ncnc3[nH]ccc23)CC1 [Capivasertib] + CC(C)n1c(=O)n(C)c2cnc3cc(F)c(-c4ccc(OCCCN5CCCCC5)nc4)cc3c21 [AZD1390] (first compound max 10 µM, 7x7, partner max 0.3 µM)	-0.0016	0.341	0.181	0.675	0.245	0.194	0.359	0.41	0.322	0.452	0.594	0.227	0.349	0.244	0.259	0.419
NC1(C(=O)N[C@@H](CCO)c2ccc(Cl)cc2)CCN(c2ncnc3[nH]ccc23)CC1 [Capivasertib] + CCN(CCO)CCCOc1ccc2c(Nc3cc(CC(=O)Nc4cccc(F)c4)[nH]n3)ncnc2c1 [AZD2811] (first compound max 10 µM, 7x7, partner max 1 µM)	0.0052	0.353	0.241	0.712	0.218	0.256	0.459	0.495	0.302	0.583	0.817	0.344	0.476	0.374	0.328	0.442
NC1(C(=O)N[C@@H](CCO)c2ccc(Cl)cc2)CCN(c2ncnc3[nH]ccc23)CC1 [Capivasertib] + COc1nnc2ccc(N3CCC(c4ccc(OCCN5CCN(C)C(=O)[C@H]5C)cc4)CC3)nn12 [AZD5153] (first compound max 10 µM, 7x7, partner max 1 µM)	0.0188	0.759	0.399	0.779	0.389	0.388	0.451	0.682	0.499	1	1	0.526	0.624	0.43	0.538	0.353
NC1(C(=O)N[C@@H](CCO)c2ccc(Cl)cc2)CCN(c2ncnc3[nH]ccc23)CC1 [Capivasertib] + C[C@@H]1COCCN1C2=NC(=NC(=C2)C3(CC3)[S@](=N)(=O)C)C4=C5C=CNC5=NC=C4 [AZD6738] (first compound max 10 µM, 7x7, partner max 10 µM)	-0.0105	0.681	0.429	0.946	0.5	0.435	0.785	0.784	0.746	0.85	0.917	0.461	0.872	0.5	0.311	0.469
NC1(C(=O)N[C@@H](CCO)c2ccc(Cl)cc2)CCN(c2ncnc3[nH]ccc23)CC1 [Capivasertib] + Cn1cnc2c(F)c(Nc3ccc(Br)cc3Cl)c(C(=O)NOCCO)cc21 [Selumetinib] (first compound max 10 µM, 7x7, partner max 10 µM)	0.0623	0.902	0.426	0.803	0.75	0.466	0.584	0.61	0.657	0.715	0.847	0.317	0.333	0.435	0.782	0.501
Cc1nc(Nc2ncc(C(=O)Nc3c(C)cccc3Cl)s2)cc(N2CCN(CCO)CC2)n1 [Dasatinib] + CC(=O)Nc1cccc(-n2c(=O)n(C3CC3)c(=O)c3c(Nc4ccc(I)cc4F)n(C)c(=O)c(C)c32)c1 [Trametinib] (first compound max 2 µM, 7x7, partner max 1 µM)	0.0843	0.998	0.868	0.642	0.928	0.61	0.793	0.917	0.861	0.621	0.589	0.494	0.476	0.5	0.837	0.0302
COc1cc2ncnc(Nc3ccc(F)c(Cl)c3)c2cc1OCCCN1CCOCC1 [Gefitinib] + CC(C)n1c(=O)n(C)c2cnc3cc(F)c(-c4ccc(OCCCN5CCCCC5)nc4)cc3c21 [AZD1390] (first compound max 10 µM, 7x7, partner max 0.3 µM)	-0.066	0.255	0.285	0.485	0.29	0.0949	0.0683	0.127	0.117	0.413	0.42	0.0817	0.0891	0.148	0.0767	0.446
CS(=O)(=O)CCNCc1ccc(-c2ccc3ncnc(Nc4ccc(OCc5cccc(F)c5)c(Cl)c4)c3c2)o1 [Lapatinib] + C[C@@H](Oc1cc(-c2cnn(C3CCNCC3)c2)cnc1N)c1c(Cl)ccc(F)c1Cl [Crizotinib] (first compound max 10 µM, 7x7, partner max 10 µM)	0.0211	0.98	0.946	0.921	0.614	0.823	0.811	0.801	0.946	0.978	0.951	0.548	0.899	0.733	0.88	0.83
CC(=O)c1c(C)c2cnc(Nc3ccc(N4CCNCC4)cn3)nc2n(C2CCCC2)c1=O [Palbociclib] + CC1(C)CCC(CN2CCN(c3ccc(C(=O)NS(=O)(=O)c4ccc(NCC5CCOCC5)c([N+](=O)[O-])c4)c(Oc4cnc5[nH]ccc5c4)c3)CC2)=C(c2ccc(Cl)cc2)C1 [Venetoclax] (first compound max 10 µM, 7x7, partner max 1 µM)	-0.034	0.431	0.0941	0.354	0.0506	0.143	0.237	0.146	0.559	0.538	0.823	0.0774	0.465	0.0106	0.135	0.101
CC(=O)c1c(C)c2cnc(Nc3ccc(N4CCNCC4)cn3)nc2n(C2CCCC2)c1=O [Palbociclib] + Cc1c2c(nn1C)CSCc1cc(n(C)n1)CSc1cc(c3ccccc3c1)OCCCc1c(C(=O)O)n(C)c3c-2c(Cl)ccc13 [AZD5991] (first compound max 10 µM, 7x7, partner max 1 µM)	-0.0186	0.675	0.301	0.467	0.142	0.0542	0.258	0.229	0.686	1	1	0.167	0.575	0.146	0.208	0.26
CC(=O)c1c(C)c2cnc(Nc3ccc(N4CCNCC4)cn3)nc2n(C2CCCC2)c1=O [Palbociclib] + Cn1cnc2c(F)c(Nc3ccc(Br)cc3Cl)c(C(=O)NOCCO)cc21 [Selumetinib] (first compound max 10 µM, 7x7, partner max 10 µM)	-0.0337	0.813	0.414	0.457	0.629	0.361	0.401	0.432	0.817	0.553	0.669	0.185	0.371	0.188	0.718	0
C[C@@H](c1ccc2nccn2c1)n1nnc2ncc(-c3cnn(C)c3)nc21 [Savolitinib] + CC1(C)CCC(CN2CCN(c3ccc(C(=O)NS(=O)(=O)c4ccc(NCC5CCOCC5)c([N+](=O)[O-])c4)c(Oc4cnc5[nH]ccc5c4)c3)CC2)=C(c2ccc(Cl)cc2)C1 [Venetoclax] (first compound max 1 µM, 7x7, partner max 1 µM)	-0.018	0.14	0.216	0.0882	0.131	0.0906	0.124	0.113	0.0816	0.0876	0.213	0.0969	0.32	0.12	0.162	0.127
C[C@@H](c1ccc2nccn2c1)n1nnc2ncc(-c3cnn(C)c3)nc21 [Savolitinib] + Cc1c2c(nn1C)CSCc1cc(n(C)n1)CSc1cc(c3ccccc3c1)OCCCc1c(C(=O)O)n(C)c3c-2c(Cl)ccc13 [AZD5991] (first compound max 1 µM, 7x7, partner max 1 µM)	-0.0163	0.133	0.136	0.114	0.125	0.117	0.104	0.186	0.128	1	0.997	0.195	0.267	0.176	0.154	0.248
Cn1cnc2c(F)c(Nc3ccc(Br)cc3Cl)c(C(=O)NOCCO)cc21 [Selumetinib] + C=CCn1c(=O)c2cnc(Nc3ccc(N4CCN(C)CC4)cc3)nc2n1-c1cccc(C(C)(C)O)n1 [AZD1775] (first compound max 10 µM, partner max 1 µM)	0.039	0.828	0.557	0.93	0.728	0.439	0.527	0.755	0.747	0.791	0.743	0.626	0.381	0.303	0.686	0.134
